Test results published in the supplement of paper PMC4932681.
Several values for one entry are separate records, joined by “and”; a condition that tells them apart may be missing. Equal values may be shown once. Where a name gives a salt, the structure may show the parent alone.

Tests used:
BT-474 [1] = assay: relative IC50 (midpoint of fitted logistic curve, plateau may be below 50% inhibition; CellTiter-Glo viability); higher = less potent; details: 72 h
In short: (§1)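 Breast cancer cell lines and their resistant derivatives were seeded into 384-well plates containing library drugs at five concentrations across a 10 000-fold range, with resistant lines kept in medium with 1 μM of the selecting drug. After 72 h at 37 °C, CellTiter-Glo viability was read on a PHERAstar and normalised to vehicle-only and positive controls. Logistic dose–response fits in the Breeze pipeline gave drug sensitivity score, relative IC50 (curve midpoint) and top-dose inhibition.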

ZR-75-1 [2] = assay: as above; details: 72 h
In short: as §1

MCF-7 Tam1 [3] = assay: as above; details: 4-OH-tamoxifen in medium 1 µM; 72 h
In short: as §1

MCF-7 [4] = assay: as above; details: 72 h
In short: as §1

T-47D Tam1 [5] = assay: as above; details: 4-OH-tamoxifen in medium 1 µM; 72 h
In short: as §1

BT-474 Tam1 [6] = assay: as above; details: 4-OH-tamoxifen in medium 1 µM; 72 h
In short: as §1

ZR-75-1 Tam1 [7] = assay: as above; details: 4-OH-tamoxifen in medium 1 µM; 72 h
In short: as §1

ZR-75-1 Tam2 [8] = assay: as above; details: 4-OH-tamoxifen in medium 1 µM; 72 h
In short: as §1

T-47D Tam2 [9] = assay: as above; details: 4-OH-tamoxifen in medium 1 µM; 72 h
In short: as §1

T-47D [10] = assay: as above; details: 72 h
In short: as §1

BT-474 Tam2 [11] = assay: as above; details: 4-OH-tamoxifen in medium 1 µM; 72 h
In short: as §1

BT-474 [12] = assay: drug sensitivity score (DSS) (DSS (dimensionless)); higher = more sensitive; extreme values may be limits of the assay; details: 72 h
In short: as §1

ZR-75-1 [13] = assay: as above; details: 72 h
In short: as §1

MCF-7 Tam1 [14] = assay: as above; details: 4-OH-tamoxifen in medium 1 µM; 72 h
In short: as §1

MCF-7 [15] = assay: as above; details: 72 h
In short: as §1

T-47D Tam1 [16] = assay: as above; details: 4-OH-tamoxifen in medium 1 µM; 72 h
In short: as §1

BT-474 Tam1 [17] = assay: as above; details: 4-OH-tamoxifen in medium 1 µM; 72 h
In short: as §1

ZR-75-1 Tam1 [18] = assay: as above; details: 4-OH-tamoxifen in medium 1 µM; 72 h
In short: as §1

ZR-75-1 Tam2 [19] = assay: as above; details: 4-OH-tamoxifen in medium 1 µM; 72 h
In short: as §1

T-47D Tam2 [20] = assay: as above; details: 4-OH-tamoxifen in medium 1 µM; 72 h
In short: as §1

T-47D [21] = assay: as above; details: 72 h
In short: as §1

BT-474 Tam2 [22] = assay: as above; details: 4-OH-tamoxifen in medium 1 µM; 72 h
In short: as §1

SMILES | relative IC50 (BT-474 [1]; 4-OH-tamoxifen in medium 0 µM) [nM] | relative IC50 (BT-474 [1]; 4-OH-tamoxifen in medium 1 µM) [nM] | relative IC50 (MCF-7 Tam1 [3]) [nM] | relative IC50 (MCF-7 [4]; 4-OH-tamoxifen in medium 0 µM) [nM] | relative IC50 (T-47D Tam1 [5]) | relative IC50 (BT-474 Tam1 [6]) | relative IC50 (T-47D Tam2 [9]) | relative IC50 (T-47D [10]; 4-OH-tamoxifen in medium 0 µM) [nM] | relative IC50 (T-47D [10]; 4-OH-tamoxifen in medium 1 µM) [nM] | relative IC50 (BT-474 Tam2 [11]) [nM] | relative IC50 (MCF-7 [4]; 4-OH-tamoxifen in medium 1 µM) [nM] | relative IC50 (ZR-75-1 [2]; 4-OH-tamoxifen in medium 0 µM) [nM] | relative IC50 (ZR-75-1 [2]; 4-OH-tamoxifen in medium 1 µM) [nM] | relative IC50 (ZR-75-1 Tam1 [7]) [nM] | relative IC50 (ZR-75-1 Tam2 [8]) [nM] | drug sensitivity score (BT-474 [12]; 4-OH-tamoxifen in medium 0 µM) | drug sensitivity score (BT-474 [12]; 4-OH-tamoxifen in medium 1 µM) | drug sensitivity score (ZR-75-1 [13]; 4-OH-tamoxifen in medium 0 µM) | drug sensitivity score (ZR-75-1 [13]; 4-OH-tamoxifen in medium 1 µM) | drug sensitivity score (MCF-7 Tam1 [14]) | drug sensitivity score (MCF-7 [15]; 4-OH-tamoxifen in medium 0 µM) | drug sensitivity score (MCF-7 [15]; 4-OH-tamoxifen in medium 1 µM) | drug sensitivity score (T-47D Tam1 [16]) | drug sensitivity score (BT-474 Tam1 [17]) | drug sensitivity score (ZR-75-1 Tam1 [18]) | drug sensitivity score (ZR-75-1 Tam2 [19]) | drug sensitivity score (T-47D Tam2 [20]) | drug sensitivity score (T-47D [21]; 4-OH-tamoxifen in medium 0 µM) | drug sensitivity score (T-47D [21]; 4-OH-tamoxifen in medium 1 µM) | drug sensitivity score (BT-474 Tam2 [22])
C[C@H]1C[C@@H]2[C@H]([C@@H](O)C[C@@]3(C)[C@H]2CC[C@]3(O)C(=O)CO)[C@@]2(C)C=CC(=O)C=C12 [Methylprednisolone] | > 10000 | > 10000 | > 10000 | > 10000 | > 10000 nM | > 10000 nM | > 10000 nM | > 10000 | > 10000 | > 10000 | – | > 10000 | > 10000 | > 10000 | > 10000 | 0 | 0 | 0 | 0 | 0 | 0 | 0.455 | 0 | 0 | 0 | 0 | 0 | 0 | 0 | 0
Cn1c(CCCC(=O)O)nc2cc(N(CCCl)CCCl)ccc21 [Bendamustine (hydrochloride hydrate)] | > 10000 | > 10000 | > 10000 | – | > 10000 nM | > 10000 nM | > 10000 nM | > 10000 | > 10000 | > 10000 | > 10000 | > 10000 | > 10000 | > 10000 | > 10000 | 0 | 0 | 0 | 0 | 0 | 0.159 | 0 | 0 | 0 | 0 | 0 | 0 | 0 | 0 | 0
COc1nc(N)nc2c1ncn2[C@@H]1O[C@H](CO)[C@@H](O)[C@@H]1O [Nelarabine] | > 10000 | > 10000 | > 10000 | – | > 10000 nM | > 10000 nM | > 10000 nM | > 10000 | > 10000 | > 10000 | > 10000 | – | > 10000 | > 10000 | > 10000 | 0 | 0 | 0.0337 | 0 | 0 | 0.277 | 0 | 0 | 0 | 0 | 0 | 0 | 0 | 0 | 0
Cc1cc2c(F)c(Oc3ncnn4cc(OC[C@@H](C)O)c(C)c34)ccc2[nH]1 [Brivanib] | > 1000 | > 1000 | > 1000 | > 1000 | > 1000 nM | – | > 1000 nM | > 1000 | > 1000 | > 1000 | > 1000 | > 1000 | > 1000 | > 1000 | > 1000 | 0 | 0 | 0 | 0 | 0 | 0 | 0 | 0 | 0 | 0 | 0 | 0 | 0 | 0 | 0

Continued, in another order:

relative IC50 (BT-474 [1]; 4-OH-tamoxifen in medium 0 µM) [nM] | relative IC50 (BT-474 [1]; 4-OH-tamoxifen in medium 1 µM) [nM] | relative IC50 (MCF-7 Tam1 [3]) [nM] | relative IC50 (MCF-7 [4]; 4-OH-tamoxifen in medium 0 µM) [nM] | relative IC50 (T-47D Tam1 [5]) | relative IC50 (BT-474 Tam1 [6]) | relative IC50 (T-47D Tam2 [9]) | relative IC50 (T-47D [10]; 4-OH-tamoxifen in medium 0 µM) [nM] | relative IC50 (T-47D [10]; 4-OH-tamoxifen in medium 1 µM) [nM] | relative IC50 (BT-474 Tam2 [11]) [nM] | relative IC50 (MCF-7 [4]; 4-OH-tamoxifen in medium 1 µM) [nM] | SMILES | relative IC50 (ZR-75-1 [2]; 4-OH-tamoxifen in medium 0 µM) [nM] | relative IC50 (ZR-75-1 [2]; 4-OH-tamoxifen in medium 1 µM) [nM] | relative IC50 (ZR-75-1 Tam1 [7]) [nM] | relative IC50 (ZR-75-1 Tam2 [8]) [nM] | drug sensitivity score (BT-474 [12]; 4-OH-tamoxifen in medium 0 µM) | drug sensitivity score (BT-474 [12]; 4-OH-tamoxifen in medium 1 µM) | drug sensitivity score (ZR-75-1 [13]; 4-OH-tamoxifen in medium 0 µM) | drug sensitivity score (ZR-75-1 [13]; 4-OH-tamoxifen in medium 1 µM) | drug sensitivity score (MCF-7 Tam1 [14]) | drug sensitivity score (MCF-7 [15]; 4-OH-tamoxifen in medium 0 µM) | drug sensitivity score (MCF-7 [15]; 4-OH-tamoxifen in medium 1 µM) | drug sensitivity score (T-47D Tam1 [16]) | drug sensitivity score (BT-474 Tam1 [17]) | drug sensitivity score (ZR-75-1 Tam1 [18]) | drug sensitivity score (ZR-75-1 Tam2 [19]) | drug sensitivity score (T-47D Tam2 [20]) | drug sensitivity score (T-47D [21]; 4-OH-tamoxifen in medium 0 µM) | drug sensitivity score (T-47D [21]; 4-OH-tamoxifen in medium 1 µM) | drug sensitivity score (BT-474 Tam2 [22])
> 1000 | 304 | > 1000 | – | > 1000 nM | – | > 1000 nM | > 1000 | – | > 1000 | > 1000 | COc1cc2c(Oc3ccc4[nH]c(C)cc4c3F)ncnc2cc1OCCCN1CCCC1 [Cediranib (AZD2171, Recentin)] | > 1000 | > 1000 | > 1000 | > 1000 | 0 | 2.04 | 0 | 0 | 0 | 0.0072 | 0 | 0 | 0.271 | 0 | 0 | 0 | 0 | 0.609 | 0
> 10000 | > 10000 | > 10000 | > 10000 | 1030 nM | > 10000 nM | 833 nM | – | – | > 10000 | > 10000 | CO[C@@H](C(=O)N1Cc2[nH]nc(NC(=O)c3ccc(N4CCN(C)CC4)cc3)c2C1)c1ccccc1 | > 10000 | > 10000 | > 10000 | > 10000 | 0 | 0 | 0 | 0 | 0 | 0 | 0 | 4.24 | 0 | 0 | 0 | 3.95 | 2.94 | 1.25 | 0
> 1000 | > 1000 | > 1000 | > 1000 | 10.3 nM and 10.7 nM | 130 nM and 374 nM | 9.43 nM and 16.4 nM | > 1000 | 41.6 | > 1000 | > 1000 | Cc1nc(Nc2ncc(C(=O)Nc3c(C)cccc3Cl)s2)cc(N2CCN(CCO)CC2)n1 [Dasatinib] | > 1000 | > 1000 | > 1000 | > 1000 | 0 | 0 | 0 | 0 | 0 | – | – | 8.54 and 7.6 | 2.9 and 1.26 | 0 | 0 | 8.11 and 4.97 | 0 | – | –
– | 1040 | > 10000 | 369 | 1120 nM | 1780 nM | 1080 nM | – | – | 857 | 553 | C=CCn1c(=O)c2cnc(Nc3ccc(N4CCN(C)CC4)cc3)nc2n1-c1cccc(C(C)(C)O)n1 [MK-1775] | – | – | > 10000 | > 10000 | 2.85 | 4.97 | 0.795 | 0.472 | 0 | 7.89 | 5.16 | 4.22 | 3.33 | 0 | 0 | 4.14 | 2.12 | 1.93 | 2.77
